Patent US7118895B2, “Process for producing aglycon by using diglycosidase and flavor-improved food containing the aglycon and converting agent to be used in the process” (Amano Enzyme Inc., priority 2000, dated 2006)

Columns and labels:
[1] = tested on: β-Glucosidase derived from A. niger; experiment: Reactivity toward various isoflavone glycosides (HPLC); assay type: biochemical, Aspergillus niger; parameters: glucoside / aglycon: unit not given here; settings: 55 °C, pH 4.0
How it was run: (§1)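 Aglycone liberation was measured by reversed-phase HPLC (260 nm, calibration-curve quantitation) after ethanol extraction at 0, 1, 3 and 6 h. Reactions ran at 55° C, pH 4.0 (20 mM acetate), with each glycoside (from 2 mM methanol stock) and 0.75 AU/mL enzyme solution.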

[2] = tested on: Diglycosidase derived from P. multicolor; experiment: as above; assay type: biochemical, Penicillium multicolor; parameters: glucoside / aglycon: unit not given here; settings: 55 °C, pH 4.0
How it was run: as §1

Crude diglycosidase = experiment: Examination of substrate concentration in the conversion into isoflavone aglycons by diglycosidase using soybean materials; assay type: biochemical, Penicillium multicolor IAM7153;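 further: percent of the isoflavone family total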
How it was run: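 Reaction at 55° C, shaken, pH 4.0 (20 mM acetate), using crude diglycosidase from a 1.88 AU/mL enzyme solution on soy flour, soymilk, defatted soybean or soy protein concentrate at 2, 5, 10, 20 or 30% (w/v). Isoflavone aglycons quantified by HPLC of ethanol extracts at 0, 1, 3, 6 h.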

reactivity of β-glucosidase derived from Aspergillus niger (in words) [1]: act well | aglycon ([1]; Reaction time 0 h): 0 | glucoside ([1]; Reaction time 0 h): 100 | aglycon ([1]; Reaction time 1 h): 49.5 | glucoside ([1]; Reaction time 1 h): 50.5 | aglycon ([1]; Reaction time 3 h): 88.3 | glucoside ([1]; Reaction time 3 h): 11.7 | aglycon ([1]; Reaction time 6 h): 95.5 | glucoside ([1]; Reaction time 6 h): 4.5 | aglycon ([2]; Reaction time 0 h): 0 | glucoside ([2]; Reaction time 0 h): 100 | aglycon ([2]; Reaction time 1 h): 97.9 | glucoside ([2]; Reaction time 1 h): 2.1 | aglycon ([2]; Reaction time 3 h): 99.8 | glucoside ([2]; Reaction time 3 h): 0.2 | aglycon ([2]; Reaction time 6 h): 99.7 | glucoside ([2]; Reaction time 6 h): 0.3 | Decomposition efficiency: ratio of each glycoside/aglycon within its isoflavone family (Crude diglycosidase; concentrated soybean protein, substrate concentration 2%, heat treatment of enzyme no, reaction time 0 h): 52.2% | Decomposition efficiency: ratio of each glycoside/aglycon within its isoflavone family (Crude diglycosidase; concentrated soybean protein, substrate concentration 2%, heat treatment of enzyme no, reaction time 1 h): not detected | Decomposition efficiency: ratio of each glycoside/aglycon within its isoflavone family (Crude diglycosidase; concentrated soybean protein, substrate concentration 2%, heat treatment of enzyme no, reaction time 3 h): not detected | Decomposition efficiency: ratio of each glycoside/aglycon within its isoflavone family (Crude diglycosidase; concentrated soybean protein, substrate concentration 2%, heat treatment of enzyme no, reaction time 6 h): not detected | Decomposition efficiency: ratio of each glycoside/aglycon within its isoflavone family (Crude diglycosidase; concentrated soybean protein, substrate concentration 2%, heat treatment of enzyme yes, reaction time 6 h): 53.4% | Decomposition efficiency: ratio of each glycoside/aglycon within its isoflavone family (Crude diglycosidase; concentrated soybean protein, substrate concentration 5%, heat treatment of enzyme no, reaction time 0 h): 52.9% | Decomposition efficiency: ratio of each glycoside/aglycon within its isoflavone family (Crude diglycosidase; concentrated soybean protein, substrate concentration 5%, heat treatment of enzyme no, reaction time 1 h): not detected | Decomposition efficiency: ratio of each glycoside/aglycon within its isoflavone family (Crude diglycosidase; concentrated soybean protein, substrate concentration 5%, heat treatment of enzyme no, reaction time 3 h): not detected | Decomposition efficiency: ratio of each glycoside/aglycon within its isoflavone family (Crude diglycosidase; concentrated soybean protein, substrate concentration 5%, heat treatment of enzyme no, reaction time 6 h): not detected | Decomposition efficiency: ratio of each glycoside/aglycon within its isoflavone family (Crude diglycosidase; concentrated soybean protein, substrate concentration 5%, heat treatment of enzyme yes, reaction time 6 h): 54.0% | Decomposition efficiency: ratio of each glycoside/aglycon within its isoflavone family (Crude diglycosidase; concentrated soybean protein, substrate concentration 10%, heat treatment of enzyme no, reaction time 0 h): 52.9% | Decomposition efficiency: ratio of each glycoside/aglycon within its isoflavone family (Crude diglycosidase; concentrated soybean protein, substrate concentration 10%, heat treatment of enzyme no, reaction time 1 h): 1.6% | Decomposition efficiency: ratio of each glycoside/aglycon within its isoflavone family (Crude diglycosidase; concentrated soybean protein, substrate concentration 10%, heat treatment of enzyme no, reaction time 3 h): not detected | Decomposition efficiency: ratio of each glycoside/aglycon within its isoflavone family (Crude diglycosidase; concentrated soybean protein, substrate concentration 10%, heat treatment of enzyme no, reaction time 6 h): not detected | Decomposition efficiency: ratio of each glycoside/aglycon within its isoflavone family (Crude diglycosidase; concentrated soybean protein, substrate concentration 10%, heat treatment of enzyme yes, reaction time 6 h): 53.4% | Decomposition efficiency: ratio of each glycoside/aglycon within its isoflavone family (Crude diglycosidase; concentrated soybean protein, substrate concentration 20%, heat treatment of enzyme no, reaction time 0 h): 53.1% | Decomposition efficiency: ratio of each glycoside/aglycon within its isoflavone family (Crude diglycosidase; concentrated soybean protein, substrate concentration 20%, heat treatment of enzyme no, reaction time 1 h): 13.2% | Decomposition efficiency: ratio of each glycoside/aglycon within its isoflavone family (Crude diglycosidase; concentrated soybean protein, substrate concentration 20%, heat treatment of enzyme no, reaction time 3 h): not detected | Decomposition efficiency: ratio of each glycoside/aglycon within its isoflavone family (Crude diglycosidase; concentrated soybean protein, substrate concentration 20%, heat treatment of enzyme no, reaction time 6 h): not detected | Decomposition efficiency: ratio of each glycoside/aglycon within its isoflavone family (Crude diglycosidase; concentrated soybean protein, substrate concentration 20%, heat treatment of enzyme yes, reaction time 6 h): 52.8% | Decomposition efficiency: ratio of each glycoside/aglycon within its isoflavone family (Crude diglycosidase; concentrated soybean protein, substrate concentration 30%, heat treatment of enzyme no, reaction time 0 h): 57.5% | Decomposition efficiency: ratio of each glycoside/aglycon within its isoflavone family (Crude diglycosidase; concentrated soybean protein, substrate concentration 30%, heat treatment of enzyme no, reaction time 1 h): 2.0% | Decomposition efficiency: ratio of each glycoside/aglycon within its isoflavone family (Crude diglycosidase; concentrated soybean protein, substrate concentration 30%, heat treatment of enzyme no, reaction time 3 h): not detected | Decomposition efficiency: ratio of each glycoside/aglycon within its isoflavone family (Crude diglycosidase; concentrated soybean protein, substrate concentration 30%, heat treatment of enzyme no, reaction time 6 h): not detected | Decomposition efficiency: ratio of each glycoside/aglycon within its isoflavone family (Crude diglycosidase; concentrated soybean protein, substrate concentration 30%, heat treatment of enzyme yes, reaction time 6 h): 58.0% | Decomposition efficiency: ratio of each glycoside/aglycon within its isoflavone family (Crude diglycosidase; defatted soybean, substrate concentration 2%, heat treatment of enzyme no, reaction time 0 h): not detected | Decomposition efficiency: ratio of each glycoside/aglycon within its isoflavone family (Crude diglycosidase; defatted soybean, substrate concentration 2%, heat treatment of enzyme no, reaction time 1 h): not detected | Decomposition efficiency: ratio of each glycoside/aglycon within its isoflavone family (Crude diglycosidase; defatted soybean, substrate concentration 2%, heat treatment of enzyme no, reaction time 3 h): not detected | Decomposition efficiency: ratio of each glycoside/aglycon within its isoflavone family (Crude diglycosidase; defatted soybean, substrate concentration 2%, heat treatment of enzyme no, reaction time 6 h): not detected | Decomposition efficiency: ratio of each glycoside/aglycon within its isoflavone family (Crude diglycosidase; defatted soybean, substrate concentration 2%, heat treatment of enzyme yes, reaction time 6 h): not detected | Decomposition efficiency: ratio of each glycoside/aglycon within its isoflavone family (Crude diglycosidase; defatted soybean, substrate concentration 5%, heat treatment of enzyme no, reaction time 0 h): not detected | Decomposition efficiency: ratio of each glycoside/aglycon within its isoflavone family (Crude diglycosidase; defatted soybean, substrate concentration 5%, heat treatment of enzyme no, reaction time 1 h): not detected | Decomposition efficiency: ratio of each glycoside/aglycon within its isoflavone family (Crude diglycosidase; defatted soybean, substrate concentration 5%, heat treatment of enzyme no, reaction time 3 h): not detected | Decomposition efficiency: ratio of each glycoside/aglycon within its isoflavone family (Crude diglycosidase; defatted soybean, substrate concentration 5%, heat treatment of enzyme no, reaction time 6 h): not detected | Decomposition efficiency: ratio of each glycoside/aglycon within its isoflavone family (Crude diglycosidase; defatted soybean, substrate concentration 5%, heat treatment of enzyme yes, reaction time 6 h): not detected | Decomposition efficiency: ratio of each glycoside/aglycon within its isoflavone family (Crude diglycosidase; defatted soybean, substrate concentration 10%, heat treatment of enzyme no, reaction time 0 h): not detected
SMILES: COc1cc2c(=O)c(-c3ccc(O)cc3)coc2cc1O[C@@H]1O[C@H](CO)[C@@H](O)[C@H](O)[C@H]1O [glycitin]
